Data: US20030078251A1, “Benzoxazepinones and their use as squalene synthase inhibitors” (priority 2000, published 2003)

| Structure (SMILES) | melting point |
| --- | --- |
| CCCCS(=O)(=O)NC(=O)C[C@H]1O[C@H](c2cccc(OC)c2OC)c2cc(Cl)ccc2N(CC(C)(C)CO)C1=O [Example 4, (3R,5S)-N-butanesulfonyl-7-chloro-5-(2,3-dimethoxyphenyl)-1-(3-hydroxy-2,2-dimethylpropyl)-2-oxo-1,2,3,5-tetrahydro-4,1-benzoxazepine-3-acetamide] | 123 to 125 °C |
| COc1cccc([C@H]2O[C@H](CC(=O)NS(=O)(=O)CCCO)C(=O)N(CC(C)(C)CO)c3ccc(Cl)cc32)c1OC [Example 6, (3R,5S)-N-(3-hydroxypropyl)sulfonyl-7-chloro-5-(2,3-dimethoxyphenyl)-1-(3-hydroxy-2,2-dimethylpropyl)-2-oxo-1,2,3,5-tetrahydro-4,1-benzoxazepine-3-acetamide] | 133 to 135 °C |
| COc1cccc([C@H]2O[C@H](CC(=O)N[C@H](CCSC)C(=O)O)C(=O)N(CC(C)(C)CO)c3ccc(Cl)cc32)c1OC [Example 16, N-[[(3R,5S)-7-chloro-5-(2,3-dimethoxyphenyl)-1-(3-hydroxy-2,2-dimethylpropyl)-2-oxo-1,2,3,5-tetrahydro-4,1-benzoxazepin-3-yl]acetyl]-D-methionine] | 142 to 143 °C |
| COc1cccc([C@H]2O[C@H](CC(=O)NCCc3oc(C(=O)O)cc3C(=O)O)C(=O)N(CC(C)(C)CO)c3ccc(Cl)cc32)c1OC [Example 28, 5-[2-[[[(3R,5S)-7-chloro-5-(2,3-dimethoxyphenyl)-1(2,2-dimethyl-3-hydroxypropyl)-2-oxo-1,2,3,5-tetrahydro-4,1-benzoxazepin-3-yl]acetyl]amino]ethyl]furan-2,4-dicarboxylic acid] | 155 to 157 °C |
| COc1cccc([C@H]2O[C@H](CC(=O)NCc3ccc(C(=O)O)o3)C(=O)N(CC(C)(C)CO)c3ccc(Cl)cc32)c1OC [Example 29, 5-[[[[(3R,5S)-7-chloro-5-(2,3-dimethoxyphenyl)-1-(2,2-dimethyl-3-hydroxypropyl)-2-oxo-1,2,3,5-tetrahydro-4,1-benzoxazepin-3-yl]acetyl]amino]methyl]furan-2-carboxylic acid] | 128 to 131 °C |
| COc1cccc([C@H]2O[C@H](CC(=O)Nc3ccc(CC(=O)O)cc3)C(=O)N(CC(C)(C)CO)c3ccc(Cl)cc32)c1OC [Example 31, 4-[[(3R,5S)-7-chloro-5-(2,3-dimethoxyphenyl)-1-(3-hydroxy-2,2-dimethylpropyl)-2-oxo-1,2,3,5-tetrahydro-4,1-benzoxazepin-3-yl]acetyl]aminophenylacetic acid] | 142 to 144 °C |
| COc1cccc([C@H]2O[C@H](CC(=O)Nc3cccc(C(=O)O)c3C)C(=O)N(CC(C)(C)CO)c3ccc(Cl)cc32)c1OC [Example 43, 3-[[[(3R,5S)-7-chloro-5-(2,3-dimethoxyphenyl)-1-(3-hydoroxy-2-dimethylpropyl)-2-oxo-1,2,3,5-tetrahydro-4,1-benzoxazepin-3-yl]acetyl]amino]-2-methylbenzoic acid] | 165 to 168 °C |
| COc1cccc([C@H]2O[C@H](CC(=O)Nc3cccc(C(=O)O)c3C)C(=O)N(CC(C)(C)COC(C)=O)c3ccc(Cl)cc32)c1OC [Example 44, 3-[[[(3R,5S)-1-(3-acetoxy-2,2-dimethylpropyl)-7-chloro-5-(2,3-dimethoxyphenyl)-2-oxo-1,2,3,5-tetrahydro-4,1-benzoxazepin-3-yl]acetyl]amino]-2-metylbenzoic acid] | 139 to 142 °C |
| COc1cccc([C@H]2O[C@H](CC(=O)Nc3ccc(C(=O)O)cc3C)C(=O)N(CC(C)(C)CO)c3ccc(Cl)cc32)c1OC [Example 48, 4-[[(3R,5S)-7-chloro-5-(2,3-dimethoxyphenyl)-1-(3-hydroxy-2,2-dimethylpropyl)-2-oxo-1,2,3,5-tetrahydro-4,1-benzoxazepin-3-yl]acetyl]amino-3-methylbenzoic acid] | 275 to 276 °C |
| CCOc1ccc(CCC(=O)O)cc1NC(=O)C[C@H]1O[C@H](c2cccc(OC)c2OC)c2cc(Cl)ccc2N(CC(C)(C)CO)C1=O [Example 49, 3-[3-[[[(3R,5S)-7-chloro-5-(2,3-dimethoxyphenyl)-1-(3-hydroxy-2,2-dimethylpropyl)-2-oxo-1,2,3,5-tetrahydro-4,1-benzoxazepin-3-yl]acetyl]amino]-4-ethoxyphenyl]propionic Acid] | 151 to 153 °C |
| CCOc1ccc(CCC(=O)O)cc1NC(=O)C[C@H]1O[C@H](c2cccc(OC)c2OC)c2cc(Cl)ccc2N(CC(C)(C)COC(C)=O)C1=O [Example 50, 3-[3-[[[(3R,5S)-1-(3-acetoxy-2,2-dimethylpropyl)-7-chloro-5-(2,3-dimethoxyphenyl)-2-oxo-1,2,3,5-tetrahydro-4,1-benzoxazepin-3-yl]acetyl]amino]-4-ethoxyphenyl]propionic Acid] | 175 to 176 °C |
| COc1cccc([C@H]2O[C@H](CC(=O)Nc3cc(CCC(=O)O)ccc3OC(C)C)C(=O)N(CC(C)(C)CO)c3ccc(Cl)cc32)c1OC [Example 51, 3-[3-[[[(3R,5S)-7-chloro-5-(2,3-dimethoxyphenyl)-1-(3-hydroxy-2,2-dimethylpropyl)-2-oxo-1,2,3,5-tetrahydro-4,1-benzoxazepin-3-yl]acetyl]amino]-4-isopropoxyphenyl]propionic Acid] | 133 to 136 °C |
| COc1cccc([C@H]2O[C@H](CC(=O)Nc3cc(CCC(=O)O)ccc3OC(C)C)C(=O)N(CC(C)(C)COC(C)=O)c3ccc(Cl)cc32)c1OC [Example 52, 3-[3-[[[(3R,5S)-1-(3-acetoxy-2,2-dimethylpropyl)-7-chloro-5-(2,3-dimethoxyphenyl)-2-oxo-1,2,3,5-tetrahydro-4,1-benzoxazepin-3-yl]acetyl]amino]-4-isopropoxyphenyl]propionic Acid] | 101 to 103 °C |
| COc1cc(CCC(=O)O)cc(NC(=O)C[C@H]2O[C@H](c3cccc(OC)c3OC)c3cc(Cl)ccc3N(CC(C)(C)CO)C2=O)c1OC [Example 66, 3-[5-[[[(3R,5S)-7-chloro-5-(2,3-dimethoxyphenyl)-1-(3-hydroxy-2,2-dimethylpropyl)-2-oxo-1,2,3,5-tetrahydro-4,1-benzoxazepin-3-yl]acetyl]amino]-3,4-dimethoxyphenyl]propionic Acid] | 145 to 148 °C |
| COc1cccc([C@H]2O[C@H](CC(=O)Nc3ccc(CCCC(=O)O)cc3)C(=O)N(CC(C)(C)CO)c3ccc(Cl)cc32)c1OC [Example 68, 4-[4-[[[(3R,5S)-7-chloro-5-(2,3-dimethoxyphenyl)-1-(3-hydroxy-2,2-dimethylpropyl)-2-oxo-1,2,3,5-tetrahydro-4,1-benzoxazepin-3-yl]acetyl]amino]phenyl]butanoic acid] | 194 to 195 °C |
| COc1cccc([C@H]2O[C@H](CC(=O)NCCCC(=O)O)C(=O)N(CC(C)(C)C)c3ccc(Cl)cc32)c1OC [Example 70, 4-[[(3R,5S)-7-chloro-5-(2,3-dimethoxyphenyl)-1-neopentyl-2-oxo-1,2,3,5-tetrahydro-4,1-benzoxazepin-3-yl]acetyl]aminobutanoic acid] | 128 to 130 °C |
| COc1cccc([C@H]2O[C@H](CC(=O)NCc3ccc(C(=O)O)cc3)C(=O)N(CC(C)(C)CO)c3ccc(Cl)cc32)c1OC [Example 75, 4-[[(3R,5S)-7-Chloro-5-(2,3-dimethoxyphenyl)-1-(3-hydroxy-2,2-dimethylpropyl)-2-oxo-1,2,3,5-tetrahydro-4,1-benzoxazepin-3-yl]acetyl]aminomethylbenzoic acid] | 143 to 144 °C |
| COc1cccc([C@H]2O[C@H](CC(=O)NCCc3ccc(OC(C)(C)C(=O)O)cc3)C(=O)N(CC(C)(C)CO)c3ccc(Cl)cc32)c1OC [Example 77, α-[4-[2-[[(3R,5S)-7-Chloro-5-(2,3-dimethoxyphenyl)-1-(3-hydroxy-2,2-dimethylpropyl)-2-oxo-1,2,3,5-tetrahydro-4,1-benzoxazepin-3-yl]acetyl]aminoethyl]phenyloxy]isobutanoic acid] | 209 to 211 °C |
| COc1cccc([C@H]2O[C@H](CC(=O)Nc3ccc4oc(C(=O)O)cc4c3)C(=O)N(CC(C)(C)CO)c3ccc(Cl)cc32)c1OC [Example 81, 5-[[[(3R,5S)-7-Chloro-5-(2,3-dimethoxyphenyl)-1-(3-hydroxy-2,2-dimethylpropyl)-2-oxo-1,2,3,5-tetrahydro-4,1-benzoxazepin-3-yl]acetyl]amino]benzofuran-2-carboxylic acid] | 171 to 172 °C |
| COc1cccc([C@H]2O[C@H](CC(=O)Nc3ccc(C(=O)O)o3)C(=O)N(CC(C)(C)CO)c3ccc(Cl)cc32)c1OC [Example 94, 5-[[(3R,5S)-7-Chloro-5-(2,3-dimethoxyphenyl)-1-(3-hydroxy-2,2-dimethylpropyl)-2-oxo-1,2,3,5-tetrahydro-4,1-benzoxazepin-3-yl]acetyl]amino-2-furancarboxylic acid] | 155 to 158 °C |
| COc1cccc([C@H]2O[C@H](CC(=O)NCCCOc3ccc(CC(=O)O)cc3)C(=O)N(CC(C)(C)CO)c3ccc(Cl)cc32)c1OC [Example 96, 4-[3-[[(3R,5S)-7-Chloro-5-(2,3-dimethoxyphenyl)-1-(3-hydroxy-2,2-dimethylpropyl)-2-oxo-1,2,3,5-tetrahydro-4,1-benzoxazepin-3-yl]acetyl]aminopropyloxy]phenylacetic acid] | 125 to 128 °C |
| COc1cccc([C@H]2O[C@H](CC(=O)NCCCOc3ccc(CC(=O)O)cc3)C(=O)N(CC(C)(C)COC(C)=O)c3ccc(Cl)cc32)c1OC [Example 97, 4-[3-[[(3R,5S)-1-(3-Acetoxy-2,2-dimethylpropyl)-7-chloro-5-(2,3-dimethoxyphenyl)-2-oxo-1,2,3,5-tetrahydro-4,1-benzoxazepin-3-yl]acetyl]aminopropyloxy]phenylacetic acid] | 163 to 164 °C |
| COc1cccc([C@H]2O[C@H](CC(=O)NCCCOc3ccc(C(=O)O)cc3)C(=O)N(CC(C)(C)CO)c3ccc(Cl)cc32)c1OC [Example 98] | 138 to 139 °C |
| COc1cccc([C@H]2O[C@H](CC(=O)NCCCOc3cccc(C(=O)O)c3)C(=O)N(CC(C)(C)CO)c3ccc(Cl)cc32)c1OC [Example 100, 3-[3-[[(3R,5S)-7-Chloro-5-(2,3-dimethoxyphenyl)-1-(3-hydroxy-2,2-dimethylpropyl)-2-oxo-1,2,3,5-tetrahydro-4,1-benzoxazepin-3-yl]acetyl]aminopropyloxy]benzoic acid] | 132 to 134 °C |
